25 compounds from patent US11753397B2, “Cereblon binders for the degradation of ikaros” (C4 Therapeutics, Inc., priority 2018, dated 2023) can be followed below.

The GI50 is the concentration giving 50% growth inhibition.

This test concerns NCIH929.1 cells. The test is described as follows: Cell viability assay (CellTiter-Glo 2.0, ATP quantification). The note with it: NCIH929.1 cell viability, CellTiter-Glo 2.0, 96 hr incubation, top concentration 1 μM. Format: cell-based. The procedure: Example 59. Cell Viability Assay
RPMI 1640 medium, fetal bovine serum (FBS) and 2-mercaptoethanol were purchased from Gibco (Grand Island, N.Y., USA). CellTiter-Glo® 2.0 Assay was purchased from Promega (Madison, Wis., USA). NCIH929.1 cell line was purchased from ATCC (Manassas, Va., USA). Cell culture flasks and 384-well microplates were acquired from VWR (Radnor, Pa., USA).
NCIH929.1 cell viability was determined based on quantification of ATP using CellTiter-Glo® 2.0 luminescent Assay kit, which signals the presence of metabolically-active cells. Briefly, the test compound was added to 384-well plates at a top concentration of 1 μM with 10 points, half log titration in duplicates. NCIH929.1 cells were seeded into the 384-well plates in RPMI medium containing 10% FBS and 0.05 mM 2-mercaptoethanol at a cell density of 750 cells per well. Cells treated in the absence of the test compound were the negative control and cells treated in the absence of CellTiter-Glo® 2.0 were the positive control. At the same day of compound treatment, CellTiter-Glo® 2.0 was added to a plate with cells treated in the absence of the test compound to establish Cytostatic control value (CT0). Cells treated with the test compound were incubated at 37° C. with 5% CO2 for 96 hr. CellTiter-Glo reagent was then added to the cells and luminescence was acquired on EnVision™ Multilabel Reader (PerkinElmer, Santa Clara, Calif., USA).
(In general: ATP-based viability assays read luminescence as a measure of living cells.)

The structures appear in SMILES notation. Where a name gives a salt, the structure may show the parent alone.

Take `CC1(C)C(C(=O)N2CCC(n3cc(CNc4cccc5c4C(=O)N(C4CCC(=O)NC4=O)C5=O)cn3)CC2)C1(C)C` (stereo not shown) [Compound 89, 2-(2,6-dioxopiperidin-3-yl)-4-(((1-(1-(2,2,3,3,3-tetramethylcyclopropane-1-carbonyl)piperidin-4-yl)-1H-pyrazol-4-yl)methyl)amino)isoindoline-1,3-dione]: the GI50 is less than 0.001 µM. Take `O=C1CCC(N2C(=O)c3cccc(NCc4cnn(C5CCN(C(=O)C6(c7ccc(F)cc7)CCCCC6)CC5)c4)c3C2=O)C(=O)N1` (stereo not shown) [Compound 68, 2-(2,6-dioxopiperidin-3-yl)-4-(((1-(1-(1-(4-fluorophenyl)cyclohexane-1-carbonyl)piperidin-4-yl)-1H-pyrazol-4-yl)methyl)amino)isoindoline-1,3-dione]: the GI50 is less than 0.1 µM. Next, `CC(C)Cn1cc(CNc2cccc3c2C(=O)N(C2CCC(=O)NC2=O)C3=O)cn1` (stereo not shown) [Compound 143, 2-(2,6-dioxopiperidin-3-yl)-4-(((1-isobutyl-1H-pyrazol-4-yl)methyl)amino)isoindoline-1,3-dione]: greater than 0.1 µM; `C[C@@H](C(=O)N1CCC(n2cc(CNc3cccc4c3C(=O)N(C3CCC(=O)NC3=O)C4=O)cn2)CC1)c1ccccc1` (stereo partly drawn) [Compound 48, 2-(2,6-dioxopiperidin-3-yl)-4-(((1-(1-((R)-2-phenylpropanoyl)piperidin-4-yl)-1H-pyrazol-4-yl)methyl)amino)isoindoline-1,3-dione]: less than 0.1 µM.

Consider `O=C1CCC(N2C(=O)c3cccc(NCc4cnn(C5CCN(C6CC6)CC5)c4)c3C2=O)C(=O)N1` (stereo not shown) [Compound 134, 4-(((1-(1-cyclopropylpiperidin-4-yl)-1H-pyrazol-4-yl)methyl)amino)-2-(2,6-dioxopiperidin-3-yl)isoindoline-1,3-dione], for which the GI50 is less than 0.1 µM. Next, `O=C1CCC(N2C(=O)c3cccc(NCc4cnn(C5CCN(C(=O)C6(O)CCC6)CC5)c4)c3C2=O)C(=O)N1` (stereo not shown) [Compound 84, 2-(2,6-dioxopiperidin-3-yl)-4-(((1-(1-(1-hydroxycyclobutane-1-carbonyl)piperidin-4-yl)-1H-pyrazol-4-yl)methyl)amino)isoindoline-1,3-dione]: less than 0.1 µM; `O=C1CCC(N2C(=O)c3cccc(NCc4cnn(C5CCN(C(=O)c6ccccc6)CC5)c4)c3C2=O)C(=O)N1` (stereo not shown) [Compound 16, 4-(((1-(1-benzoylpiperidin-4-yl)-1H-pyrazol-4-yl)methyl)amino)-2-(2,6-dioxopiperidin-3-yl)isoindoline-1,3-dione]: less than 0.1 µM. Next, `O=C1CCC(N2C(=O)c3cccc(NCc4cnn(C5CCN(C(=O)C6C7(CC7)C67CC7)CC5)c4)c3C2=O)C(=O)N1` (stereo not shown) [Compound 98, 2-(2,6-dioxopiperidin-3-yl)-4-(((1-(1-(dispiro[2.0.24.13]heptane-7-carbonyl)piperidin-4-yl)-1H-pyrazol-4-yl)methyl)amino)isoindoline-1,3-dione]: less than 0.001 µM; `O=C1CCC(N2C(=O)c3cccc(NCc4cnn(C5CCN(C(=O)OCC(Cl)(Cl)Cl)CC5)c4)c3C2=O)C(=O)N1` (stereo not shown) [Compound 148, 2,2,2-trichloroethyl 4-(4-(((2-(2,6-dioxopiperidin-3-yl)-1,3-dioxoisoindolin-4-yl)amino)methyl)-1H-pyrazol-1-yl)piperidine-1-carboxylate]: less than 0.1 µM; `O=C1CCC(N2C(=O)c3cccc(NCc4cnn(C5CCN(C(=O)C6(C(F)(F)F)CCC6)CC5)c4)c3C2=O)C(=O)N1` (stereo not shown) [Compound 75, 2-(2,6-dioxopiperidin-3-yl)-4-(((1-(1-(1-(trifluoromethyl)cyclobutane-1-carbonyl)piperidin-4-yl)-1H-pyrazol-4-yl)methyl)amino)isoindoline-1,3-dione]: less than 0.001 µM. Next, `O=C1CCC(N2C(=O)c3cccc(NCc4cnn(CC(F)(F)F)c4)c3C2=O)C(=O)N1` (stereo not shown) [Compound 153, 2-(2,6-dioxo-3-piperidyl)-4-[[1-(2,2,2-trifluoroethyl)pyrazol-4-yl]methylamino]isoindoline-1,3-dione]: less than 0.1 µM. Compound `CC(C)(C)OC(=O)CN1CC(n2cc(CNc3cccc4c3C(=O)N(C3CCC(=O)NC3=O)C4=O)cn2)C1` (stereo not shown) [Compound 184, tert-butyl 2-(3-(4-(((2-(2,6-Dioxopiperidin-3-yl)-1,3-dioxoisoindolin-4-yl)amino)methyl)-1H-pyrazol-1-yl)azetidin-1-yl)acetate] yielded a GI50 of less than 0.1 µM.

On to `O=C1CCC(N2C(=O)c3cccc(NCc4cnn(C5CCN(C(=O)N6CCCCC6)CC5)c4)c3C2=O)C(=O)N1` (stereo not shown) [Compound 88, 2-(2,6-dioxopiperidin-3-yl)-4-(((1-(1-(piperidine-1-carbonyl)piperidin-4-yl)-1H-pyrazol-4-yl)methyl)amino)isoindoline-1,3-dione], for which the 50% growth inhibitory concentration (GI50) is less than 0.1 µM.

Consider `O=C1CCC(N2C(=O)c3cccc(NCc4cnn(C5CCN(CC6(C(F)(F)F)CC6)CC5)c4)c3C2=O)C(=O)N1` (stereo not shown) [Compound 137, 2-(2,6-dioxopiperidin-3-yl)-4-(((1-(1-((1-(trifluoromethyl)cyclopropyl)methyl)piperidin-4-yl)-1H-pyrazol-4-yl)methyl)amino)isoindoline-1,3-dione], for which the GI50 was less than 0.1 µM. Next, `CC1(C(=O)N2CCC(n3cc(CNc4cccc5c4C(=O)N(C4CCC(=O)NC4=O)C5=O)cn3)CC2)CCC1` (stereo not shown) [Compound 33, 2-(2,6-dioxopiperidin-3-yl)-4-(((1-(1-(1-methylcyclobutane-1-carbonyl)piperidin-4-yl)-1H-pyrazol-4-yl)methyl)amino)isoindoline-1,3-dione]: less than 0.001 µM; `CC(=O)N1C2CCC1CC(n1cc(CNc3cccc4c3C(=O)N(C3CCC(=O)NC3=O)C4=O)cn1)C2` (stereo not shown) [Compound 156, 4-[[1-(8-acetyl-8-azabicyclo[3.2.1]octan-3-yl)pyrazol-4-yl]methylamino]-2-(2,6-dioxo-3-piperidyl)isoindoline-1,3-dione]: less than 0.1 µM. On to `NC1(C(=O)N2CCC(n3cc(CNc4cccc5c4C(=O)N(C4CCC(=O)NC4=O)C5=O)cn3)CC2)CCC1` (stereo not shown) [Compound 175, 4-[[1-[1-(1-aminocyclobutanecarbonyl)-4-piperidyl]pyrazol-4-yl]methylamino]-2-(2,6-dioxo-3-piperidyl)isoindoline-1,3-dione hydrochloride], for which the GI50 was less than 0.1 µM. Consider `CC(C)n1cc(CNc2cccc3c2C(=O)N(C2CCC(=O)NC2=O)C3=O)cn1` (stereo not shown) [Compound 152, 2-(2,6-dioxo-3-piperidyl)-4-[(1-isopropylpyrazol-4-yl)methylamino]isoindoline-1,3-dione], for which the GI50 is less than 0.1 µM.

Compound `O=C1CCC(N2C(=O)c3cccc(NCc4cnn(C5CCN(C(=O)CC6CCCC6)CC5)c4)c3C2=O)C(=O)N1` (stereo not shown) [Compound 20, 4-(((1-(1-(2-cyclopentylacetyl)piperidin-4-yl)-1H-pyrazol-4-yl)methyl)amino)-2-(2,6-dioxopiperidin-3-yl)isoindoline-1,3-dione] had a GI50 of less than 0.1 µM. Next, `O=C1CCC(N2C(=O)c3cccc(NCc4cnn(C5CCN(C(=O)C6CCCOC6)CC5)c4)c3C2=O)C(=O)N1` (stereo not shown) [Compound 42, 2-(2,6-dioxopiperidin-3-yl)-4-(((1-(1-(tetrahydro-2H-pyran-3-carbonyl)piperidin-4-yl)-1H-pyrazol-4-yl)methyl)amino)isoindoline-1,3-dione]: less than 0.1 µM. For `O=C1CCC(N2C(=O)c3cccc(NCc4cnn(C5CCN(C(=O)C6CCN(C(=O)C7CCOCC7)CC6)CC5)c4)c3C2=O)C(=O)N1` (stereo not shown) [Compound 109, 2-(2,6-dioxopiperidin-3-yl)-4-(((1-(1-(1-(tetrahydro-2H-pyran-4-carbonyl)piperidine-4-carbonyl)piperidin-4-yl)-1H-pyrazol-4-yl)methyl)amino)isoindoline-1,3-dione], the GI50 was less than 0.1 µM. For the compound `COCC(=O)N1CCC(n2cc(CNc3cccc4c3C(=O)N(C3CCC(=O)NC3=O)C4=O)cn2)CC1` (stereo not shown) [Compound 31, 2-(2,6-dioxopiperidin-3-yl)-4-(((1-(1-(2-methoxyacetyl)piperidin-4-yl)-1H-pyrazol-4-yl)methyl)amino)isoindoline-1,3-dione], the GI50 is less than 0.1 µM.

Consider `CC(C)(C)CC(=O)N1CCC(n2cc(CNc3cccc4c3C(=O)N(C3CCC(=O)NC3=O)C4=O)cn2)CC1` (stereo not shown) [Compound 12, 4-(((1-(1-(3,3-dimethylbutanoyl)piperidin-4-yl)-1H-pyrazol-4-yl)methyl)amino)-2-(2,6-dioxopiperidin-3-yl)isoindoline-1,3-dione], for which the GI50 is less than 0.1 µM. Next, `O=C1CCC(N2C(=O)c3cccc(NCc4cnn(C5CCN(C(=O)C6CCN(C(=O)C7CCC7)CC6)CC5)c4)c3C2=O)C(=O)N1` (stereo not shown) [Compound 112, 4-(((1-(1-(1-(cyclobutanecarbonyl)piperidine-4-carbonyl)piperidin-4-yl)-1H-pyrazol-4-yl)methyl)amino)-2-(2,6-dioxopiperidin-3-yl)isoindoline-1,3-dione]: less than 0.1 µM; `O=C1CCC(N2C(=O)c3cccc(NCc4cnn(C5CCN(C(=O)[C@H]6CCCO6)CC5)c4)c3C2=O)C(=O)N1` (stereo partly drawn) [Compound 38, 2-(2,6-dioxopiperidin-3-yl)-4-(((1-(1-((R)-tetrahydrofuran-2-carbonyl)piperidin-4-yl)-1H-pyrazol-4-yl)methyl)amino)isoindoline-1,3-dione]: less than 0.1 µM.
